This assay relates to BDF1 mice, P388 leukemia ip, median survival T/C. In words: NCI In Vivo Anticancer Drug Screen. Data for tumor model P388 Leukemia (intraperitoneal) in B6D2F1 (BDF1) mice. Conditions: endpoint: median survival time, higher = longer survival. The essentials:
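Transplantable tumour in mice; compound vs vehicle dosing; survival scored; ratio of treated to control reported.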

Where [1] appears, read: dose: 100.0 mg/kg/injection, schedule: Q04DX003 (ip), vehicle: Klucel (hydroxypropylcellulose) (HPC).
Setting [2] is: dose: 200.0 mg/kg/injection, schedule: Q04DX003 (ip), vehicle: Klucel (hydroxypropylcellulose) (HPC).
Where [3] appears, read: dose: 25.0 mg/kg/injection, schedule: Q01DX009 (ip), vehicle: saline with Tween-80.
The mark [4] stands for this setting: dose: 50.0 mg/kg/injection, schedule: Q01DX009 (ip), vehicle: saline with Tween-80.
The mark [5] stands for this setting: dose: 100.0 mg/kg/injection, schedule: Q01DX009 (ip), vehicle: saline with Tween-80.
The mark [6] stands for this setting: dose: 200.0 mg/kg/injection, schedule: Q01DX009 (ip), vehicle: saline with Tween-80.
The mark [7] stands for this setting: dose: 100.0 mg/kg/injection, schedule: Q01DX009 (ip), vehicle: Klucel (hydroxypropylcellulose) (HPC).

Where “and” joins values, the source holds several entries; their conditions need not be identical. Equal entries are not always repeated. Toxic doses and inconclusive results are not listed.

`CC(=O)N(C)N(Cc1ccc(C#N)cc1)C(C)=O`: the T/C (dose: 25.0 mg/kg/injection, schedule: Q04DX003 (ip), vehicle: Klucel (hydroxypropylcellulose) (HPC)) is 94 % of control; the T/C (dose: 50.0 mg/kg/injection, schedule: Q04DX003 (ip), vehicle: Klucel (hydroxypropylcellulose) (HPC)) was 100 % of control; the T/C under setting [1] was 99 % of control; the T/C under setting [2] was 100 % of control; the T/C (dose: 400.0 mg/kg/injection, schedule: Q04DX003 (ip), vehicle: Klucel (hydroxypropylcellulose) (HPC)) was 111 % of control.

On to `O/N=C1\CCCc2ccc(F)cc21`, for which the T/C under setting [3] was 100 % of control; the T/C under setting [4] is 106 % of control and 108 % of control; the T/C under setting [5] was 106 % of control; the T/C under setting [6] was 109 % of control and 120 % of control.

Take `ClC1=CCCCC1`: the T/C is, setting by setting: (dose: 150.0 mg/kg/injection, schedule: Q01DX009 (ip), vehicle: saline) 120 % of control; (dose: 225.0 mg/kg/injection, schedule: Q01DX009 (ip), vehicle: saline) 115 % of control; (dose: 335.0 mg/kg/injection, schedule: Q01DX009 (ip), vehicle: saline) 120 % of control.

As to `CCC1CCCCN1C` (centres undefined), the T/C (dose: 12.5 mg/kg/injection, schedule: Q04DX003 (ip), vehicle: saline) is 100 % of control; the T/C (dose: 25.0 mg/kg/injection, schedule: Q04DX003 (ip), vehicle: saline) is 90 % of control; the T/C (dose: 50.0 mg/kg/injection, schedule: Q04DX003 (ip), vehicle: saline) was 90 % of control.

Consider `O=[N+]([O-])c1cc([N+](=O)[O-])c(NN(c2ccc(Cl)cc2)c2ccc(Cl)cc2)c([N+](=O)[O-])c1`, for which the T/C reads like this: (dose: 50.0 mg/kg/injection, schedule: Q01DX009 (ip), vehicle: Klucel (hydroxypropylcellulose) (HPC)) 109 % of control; under setting [7], 113 % of control; under setting [1], 118 % of control; under setting [2], 118 % of control.

In the case of `CCOC(=O)Oc1c(OC)cc(C(=O)O[C@@H]2C[C@@H]3CN4CCc5c([nH]c6cc(OC)ccc56)[C@H]4C[C@@H]3[C@H](C(=O)OC)[C@H]2OC)cc1OC`, under setting [3], the T/C is 100 % of control.

Take `c1ccc([As+](c2ccccc2)(c2ccccc2)c2ccccc2)cc1`: the T/C was 110 % of control (dose: 0.1 mg/kg/injection, schedule: Q04DX003 (ip), vehicle: saline); 105 % of control (dose: 0.15 mg/kg/injection, schedule: Q01DX009 (ip), vehicle: saline); 105 % of control (dose: 0.15 mg/kg/injection, schedule: Q04DX003 (ip), vehicle: saline); 116 % of control (dose: 0.23 mg/kg/injection, schedule: Q01DX009 (ip), vehicle: saline); 110 % of control (dose: 0.36 mg/kg/injection, schedule: Q04DX003 (ip), vehicle: saline); 122 % of control (dose: 0.54 mg/kg/injection, schedule: Q01DX009 (ip), vehicle: saline). Further, the T/C runs as follows: (dose: 0.55 mg/kg/injection, schedule: Q04DX003 (ip), vehicle: saline) 165 % of control; (dose: 2.4 mg/kg/injection, schedule: Q01DX009 (ip), vehicle: saline) 184 % of control; (dose: 2.5 mg/kg/injection, schedule: Q01DX009 (ip), vehicle: saline) 155 % of control; (dose: 3.75 mg/kg/injection, schedule: Q01DX009 (ip), vehicle: saline) 160 % of control and 161 % of control and 184 % of control; (dose: 5.0 mg/kg/injection, schedule: Q04DX003 (ip), vehicle: saline) 150 % of control and 160 % of control; (dose: 5.6 mg/kg/injection, schedule: Q01DX009 (ip), vehicle: saline) 121 % of control. Besides, the T/C is 165 % of control (dose: 5.63 mg/kg/injection, schedule: Q01DX009 (ip), vehicle: saline) and 150 % of control (dose: 7.5 mg/kg/injection, schedule: Q04DX003 (ip), vehicle: saline).

As to `O=S1(=O)CCCO1`, the T/C by setting is: under setting [4], 95 % of control; under setting [5], 113 % of control.

With `CC(C)[C@]12O[C@H]1[C@@H]1O[C@]13[C@]1(O[C@H]1C[C@H]1C4=C(C(=O)OC4)[C@@H](O)C[C@@]13C)[C@@H]2O`, the T/C by setting is: (dose: 0.03 mg/kg/injection, schedule: Q01DX009 (ip), vehicle: saline + alcohol) 100 % of control and 106 % of control; (dose: 0.06 mg/kg/injection, schedule: Q01DX009 (ip), vehicle: saline + alcohol) 113 % of control and 117 % of control; (dose: 0.13 mg/kg/injection, schedule: Q01DX009 (ip), vehicle: saline + alcohol) 120 % of control; (dose: 0.25 mg/kg/injection, schedule: Q01DX009 (ip), vehicle: saline + alcohol) 150 % of control; (dose: 3.8 micrograms/kg/injection, schedule: Q01DX009 (ip), vehicle: saline) 104 % of control; (dose: 6.5 micrograms/kg/injection, schedule: Q01DX009 (ip), vehicle: saline) 104 % of control. Besides, the T/C by setting is: (dose: 13.0 micrograms/kg/injection, schedule: Q01DX009 (ip), vehicle: saline) 95 % of control; (dose: 25.0 micrograms/kg/injection, schedule: Q01DX009 (ip), vehicle: saline) 109 % of control; (dose: 100.0 micrograms/kg/injection, schedule: Q01DX009 (ip), vehicle: saline + alcohol) 90 % of control.

`O=C(Nc1cccc(C(=O)Nc2ccc(C3=NCCN3)cc2)c1)c1ccc(C2=NCCN2)cc1`: the T/C (dose: 16.5 mg/kg/injection, schedule: Q01DX009 (ip), vehicle: saline) was 122 % of control.

As to `COc1cc(NS(C)(=O)=O)ccc1N`, the T/C runs as follows: under setting [7], 100 % of control; under setting [1], 100 % of control; (dose: 200.0 mg/kg/injection, schedule: Q01DX009 (ip), vehicle: Klucel (hydroxypropylcellulose) (HPC)) 90 % of control.

Take `CCCCc1ccc2nc(NC(=O)OC)[nH]c2c1`: the T/C is, setting by setting: (dose: 100.0 mg/kg/injection, schedule: Q04DX003 (ip), vehicle: other) 174 % of control; (dose: 100.0 mg/kg/injection, schedule: Q04DX003 (ip), vehicle: saline with Tween-80) 169 % of control; under setting [2], 160 % of control; (dose: 200.0 mg/kg/injection, schedule: Q04DX003 (ip), vehicle: other) 93 % of control; (dose: 200.0 mg/kg/injection, schedule: Q04DX003 (ip), vehicle: saline with Tween-80) 96 % of control.

Turning to `COc1ccc2c(c1)CC[C@@H]1[C@@H]2CC[C@]2(C)/C(=N\O)CC[C@@H]12`, the T/C was 104 % of control under setting [5]; 109 % of control under setting [6]; 90 % of control (dose: 400.0 mg/kg/injection, schedule: Q01DX009 (ip), vehicle: saline with Tween-80).

For the compound `CC(=O)[C@]1(O)Cc2c(O)c3c(c(O)c2[C@@H](OC2CC(N)C(O)C(C)O2)C1)C(=O)c1c(O)cccc1C3=O` (some centres undefined), the T/C (dose: 0.32 mg/kg/injection, schedule: Q04DX003 (ip), vehicle: water) is 185 % of control; the T/C (dose: 0.39 mg/kg/injection, schedule: Q04DX003 (ip), vehicle: water) is 203 % of control; the T/C (dose: 0.54 mg/kg/injection, schedule: Q04DX003 (ip), vehicle: water) was 101 % of control; the T/C (dose: 0.9 mg/kg/injection, schedule: Q04DX003 (ip), vehicle: water) is 92 % of control; the T/C (dose: 1.08 mg/kg/injection, schedule: Q04DX003 (ip), vehicle: water) was 115 % of control.

`COc1nc(Cl)nc(OC)n1`: the T/C was 96 % of control under setting [3], 97 % of control under setting [4], 99 % of control under setting [5] and 99 % of control under setting [6].

Turning to `CC1(C)N=C(c2ccc3ccccc3c2)CC1C#N` (centres undefined), the T/C by setting is: (dose: 100.0 mg/kg/injection, schedule: Q01DX001 (ip), vehicle: saline with Tween-80) 100 % of control; (dose: 200.0 mg/kg/injection, schedule: Q01DX001 (ip), vehicle: saline with Tween-80) 100 % of control; (dose: 400.0 mg/kg/injection, schedule: Q01DX001 (ip), vehicle: saline with Tween-80) 95 % of control.

For `CCOC(=S)S`, the T/C is 100 % of control (dose: 100.0 mg/kg/injection, schedule: Q01DX009 (ip), vehicle: saline) and 95 % of control (dose: 200.0 mg/kg/injection, schedule: Q01DX009 (ip), vehicle: saline).

As for `O=C(NCC(O)CCl)c1ccc([N+](=O)[O-])cc1` (centres undefined), the T/C runs as follows: (dose: 100.0 mg/kg/injection, schedule: Q01DX001 (ip), vehicle: Klucel (hydroxypropylcellulose) (HPC)) 100 % of control; (dose: 200.0 mg/kg/injection, schedule: Q01DX001 (ip), vehicle: Klucel (hydroxypropylcellulose) (HPC)) 100 % of control; (dose: 400.0 mg/kg/injection, schedule: Q01DX001 (ip), vehicle: Klucel (hydroxypropylcellulose) (HPC)) 110 % of control.
